Here are results for three substances from publication PMC4200786, “Synthesis and Characterization of New Bivalent Agents as Melatonin- and Histamine H3-Ligands” (International Journal of Molecular Sciences, 2014).

Assay [1] deals with T1, human histamine H3 receptor (Homo sapiens, UniProt Q9Y5N1).
T1 construct: expressed in transfected cells; host or cells: SK-N-MC cells
The experiment in a line: Human histamine H3 receptor binding assay, [3H](R)-α-methylhistamine displacement. The following applies: SK-N-MC cell homogenates expressing hH3R; 0.5 nM [3H](R)-α-methylhistamine; mean ± SEM of three experiments. Here is the method: Homogenates of SK–N–MC cells expressing human histamine H3 receptors (hH3Rs) were used to determine affinity values of the new compounds in radioligand displacement studies according to Lovenberg et al.’s method. SK–N–MC cells in confluent culture plates were harvested using trypsin digestion and then centrifuged for 5 min at 1100 rpm. Pellets, either fresh or stored at −80 °C until the moment of use, were mechanically homogenized with Potter-Elvhejem in 20 mM Tris-HCl/0.5 mM EDTA. Supernatants from a 2000 rpm spin (10 min) were collected and re-centrifuged at 10,000 rpm for 30 min. Pellets were re-homogenized in 50 mM Tris-HCl/5 mM EDTA (pH 7.4). Membranes were incubated for 60 min at room temperature with 0.5 nM [^3H](R)-α-methylhistamine in 50 mM Tris-HCl/5 mM EDTA (pH 7.4) with or without competing ligands. Each concentration was tested in triplicate. Incubation was terminated by rapid filtration over Millipore (Darmstadt, Germany) AAWPO2500 filters followed by two washes with ice-cold buffer (50 mM Tris-HCl/5 mM EDTA). Filters retained radioactivity was determined by liquid scintillation counting (Ultima Gold XR Perkin Elmer (Waltham, MA, USA) scintillation liquid, Tri-Carb 2810 TR Perkin Elmer (Waltham, MA, USA) Liquid Scintillation Analyzer). […] Data are expressed as mean ± SEM of three independent experiments.

Assay [2] deals with T2, human MT2 receptor (Homo sapiens, UniProt P49286).
T2 construct: expressed in transfected cells; host or cells: NIH3T3 fibroblast cells
T2 sequence (P49286 1-362): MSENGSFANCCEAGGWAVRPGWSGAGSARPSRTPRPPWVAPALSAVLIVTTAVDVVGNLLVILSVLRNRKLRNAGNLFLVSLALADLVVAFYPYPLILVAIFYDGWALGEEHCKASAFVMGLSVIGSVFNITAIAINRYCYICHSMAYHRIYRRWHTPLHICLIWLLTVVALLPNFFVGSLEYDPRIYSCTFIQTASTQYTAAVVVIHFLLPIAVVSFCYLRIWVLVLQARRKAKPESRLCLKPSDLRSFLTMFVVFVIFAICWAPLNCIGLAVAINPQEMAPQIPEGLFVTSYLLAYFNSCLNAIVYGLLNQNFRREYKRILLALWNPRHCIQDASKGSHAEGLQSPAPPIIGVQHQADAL
The experiment in a line: Human MT2 melatonin receptor binding assay, 2-[125I]iodomelatonin competition. The conditions noted are these: cloned human MT2 in NIH3T3 cell membranes; 2-[125I]iodomelatonin 100 pM; N.A. = Not active up to 100 μM. The procedure:
(§1) Binding affinities were determined using 2-[^125I]iodomelatonin as the labeled ligand in competition experiments with cloned human MT1 and MT2 receptors expressed in NIH3T3 […] fibroblast cells. The characterization of NIH3T3 MT1 and MT2 cells was already described in detail. Membranes were incubated for 90 min at 37 °C in binding buffer (50 mM Tris/HCl, pH 7.4). The final membrane concentration was 5–10 μg of protein per tube. The membrane protein level was determined in accordance with a previously reported method. 2-[^125I]Iodomelatonin (100 pM) and different concentrations of the tested compounds were incubated with the receptor preparation for 90 min at 37 °C. […] The pKi values were calculated from the IC50 values according to the Cheng–Prusoff equation [51]. The pKi values are the mean of at least three independent determinations performed in duplicate.

Assay [3] addresses T3, human MT1 receptor (Homo sapiens, UniProt P48039).
T3 construct: expressed in transfected cells; host or cells: NIH3T3 fibroblast cells
The experiment in a line: Human MT1 melatonin receptor binding assay, 2-[125I]iodomelatonin competition. The conditions noted are these: cloned human MT1 in NIH3T3 cell membranes; 2-[125I]iodomelatonin 100 pM; N.A. = Not active up to 100 μM. Here is the method: as §1

The target in assay [4] is T2, human MT2 receptor. The experiment in a line: [35S]GTPγS binding assay, human MT2 receptor. The class given is biochemical. Here is the method:
(§2) To determine the functional activity of compound 14d at MT1 and MT2 receptor subtypes, [^35S]GTPγS binding assays in NIH3T3 cells expressing human-cloned MT1 or MT2 receptors were performed. The amount of bound [^35S]GTPγS is proportional to the level of the analog-induced G protein activation and is related to the intrinsic activity of the compound under study. The detailed description and validation of this method were reported elsewhere. Membranes (15–25 μg of protein, final incubation volume 100 μL) were incubated at 30 °C for 30 min in the presence and absence 14d, in assay buffer consisting of [^35S]GTPγS (0.3–0.5 nM), GDP (50 μM), NaCl (100 mM), and MgCl2 (3 mM). Nonspecific binding was defined using GTPγS (10 μM). […] Basal stimulation is the amount of [^35S]GTPγS specifically bound in the absence of compounds and was taken as 100%. […] All of the measurements were performed in triplicate.

The target of assay [5] is T3, human MT1 receptor. The experiment in a line: [35S]GTPγS binding assay, human MT1 receptor. The class given is biochemical. The procedure:
as §2

T3 sequence (P48039 whole entry): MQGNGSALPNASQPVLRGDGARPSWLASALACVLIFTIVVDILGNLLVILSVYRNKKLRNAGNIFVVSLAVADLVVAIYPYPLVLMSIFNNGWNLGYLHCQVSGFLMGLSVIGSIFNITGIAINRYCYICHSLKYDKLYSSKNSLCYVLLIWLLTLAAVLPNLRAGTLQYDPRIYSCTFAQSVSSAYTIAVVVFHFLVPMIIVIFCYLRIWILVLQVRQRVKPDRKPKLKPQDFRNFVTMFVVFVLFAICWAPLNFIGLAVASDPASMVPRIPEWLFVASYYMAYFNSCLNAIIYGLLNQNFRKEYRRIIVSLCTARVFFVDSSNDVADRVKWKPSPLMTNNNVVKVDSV
T1 sequence (Q9Y5N1 whole entry): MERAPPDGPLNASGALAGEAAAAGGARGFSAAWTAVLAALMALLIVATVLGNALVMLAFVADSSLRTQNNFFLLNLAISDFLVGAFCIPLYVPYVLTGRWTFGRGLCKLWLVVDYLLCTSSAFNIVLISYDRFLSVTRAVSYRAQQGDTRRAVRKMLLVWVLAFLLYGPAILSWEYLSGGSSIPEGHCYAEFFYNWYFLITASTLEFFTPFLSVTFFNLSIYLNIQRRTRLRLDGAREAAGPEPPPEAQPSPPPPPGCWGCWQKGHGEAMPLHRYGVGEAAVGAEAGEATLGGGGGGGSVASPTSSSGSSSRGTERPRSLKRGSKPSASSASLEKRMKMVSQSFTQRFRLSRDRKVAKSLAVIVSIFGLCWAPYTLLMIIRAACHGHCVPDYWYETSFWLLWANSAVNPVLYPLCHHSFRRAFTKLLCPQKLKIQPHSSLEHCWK

Take “N-[2-({3-[3-(1H-Imidazol-4-yl)propoxy]phenyl}methylamino)ethyl]acetamide [Compound 14a]”: the “hH3 pKi” value in assay [1] amounted to 5.91 ± 0.01.
Take “N-[2-({3-[5-(1H-Imidazol-4-yl)pentyloxy]phenyl}methylamino)ethyl]acetamide [Compound 14c]”: the “hH3 pKi” value in assay [1] is listed as 6.28 ± 0.03. Moreover, at human MT2 receptor [2], the “hMT2 pKi” value was determined as 6.28 ± 0.10. For the same substance, at human MT1 receptor [3], the “hMT1 pKi” value is 6.09 ± 0.12.
In the case of “N-[2-({3-[6-(1H-Imidazol-4-yl)hexyloxy]phenyl}methylamino)ethyl]acetamide [Compound 14d]”, the “functional behaviour at MT2 receptor in the GTPγS assay” value on human MT2 receptor [4] (GTPγS assay) was “antagonist”. Further, the “hMT2 IAR (relative intrinsic activity)” value at human MT2 receptor [4] ([35S]GTPγS binding, NIH3T3 cells expressing human MT2, relative to melatonin) is −0.35 ± 0.19. Besides, in assay [1], the “hH3 pKi” value came out at 6.22 ± 0.09. The “functional behaviour at MT1 receptor in the GTPγS assay” value on human MT1 receptor [5] (GTPγS assay) was “antagonist”. Also, on human MT1 receptor [5] ([35S]GTPγS binding, NIH3T3 cells expressing human MT1, relative to melatonin), the “hMT1 IAR (relative intrinsic activity)” value was −0.26 ± 0.09. The “hMT2 pKi” value at human MT2 receptor [2] is reported as 6.76 ± 0.06. In addition, the “hMT1 pKi” value at human MT1 receptor [3] came to 6.79 ± 0.01.
